Read-outs that look alike come from different tables or passages of the source. Blank lines part the entries; values can stand above or below the compound they belong to.
Experiments:
[1] = tested on: Chinese hamster V79-4 lung fibroblasts; assay: pH-dependent binding to anoxic V79-4 cells, ELISA of cell lysates; assay type: cell-based; settings: for binding (ng/g protein ± SE): anoxic V79 cells, 200 uM, 3 hours, 5% CO2+95% nitrogen
From the text: Weakly basic 2-nitroimidazole hypoxia compounds of the invention are more sensitive detectors of hypoxia in cells at high pH than are 2-nitroimidazoles that lack a weakly basic moiety, such as CCI-103F. pH-dependent binding for weakly basic pimonidazole was compared to that for CCI-103F in Chinese hamster V79-4 lung fibroblasts under conditions of short-term anoxia. The pH range used (6.4 to 7.4) encompasses about 90% of extracellular pHs measured in human tumors. Eagle's minimum essential medium (MEM) containing 4.5 g/L glucose, but no carbonate, was warmed to 37° C. in a warm room and adjusted to pH 6.4, 6.8 and 7.4 by the addition of sodium bicarbonate under a stream of 5% CO2+95% nitrogen. Fetal bovine serum (FBS) was added to produce an Eagle's pH adjusted MEM containing 10% FBS. Attached V79-4 cells were harvested with EDTA-trypsin and diluted in 25 mL of the pH adjusted MEM at a concentration of 3×10^5 cells/mL. To this solution was added an amount of a stock solution of pimonidazole HCl or CCI-103F to produce a final concentration of 200 uM. The cell solution was then incubated under an atmosphere of 5% CO2+95% nitrogen with agitation for 3 hours. Cell lysates were analyzed by ELISA and the data normalized to protein content. The experiments for both markers were performed in triplicate.

[2] = tested on: V79 cells; settings: cited from earlier work
[3] = humans; cited from earlier work
[4] = tested on: spontaneous canine tumors; assay: immunostaining of hypoxia marker adducts in biopsies of spontaneous canine tumors; assay type: in vivo, dogs
From the text: Weakly basic 2-nitroimidazole hypoxia compounds of the invention are more efficient at detecting fluctuating hypoxia than are compounds that lack a weakly basic moiety when measured in large spontaneous canine tumors analogous to those occurring in humans. The hydrochloride salt of the weakly basic hypoxia marker, pimonidazole, was given to 12 dogs at a dosage of 0.5 gm/m^2 body surface area. Seven hours later, all 12 dogs received CCI-103F, a marker that lacks a weakly basic moiety. Two to four, widely separated biopsy samples were taken from viable regions in each tumor and immediately placed in cold 10% neutral buffered formalin. The specimens were fixed for 18-24 hours at 4° C. and then transferred into cold 70% ethanol and stored at 4° C. until mounted into paraffin blocks. Sections from formalin-fixed paraffin-embedded biopsy samples were immunostained for pimonidazole and CCI-103F binding using primary rabbit polyclonal antisera to pimonidazole and CCI-103F adducts respectively. Immunostained sections were exhaustively scanned at 400× by means of an Axioskop 50 microscope and Fluar objective and the percent immunostaining for pimonidazole and CCI-103F adducts was measured.

[5] = cited from earlier work
[6] = tested on: central nervous system; settings: clinical use, 0.5 g/m2; 750-1000 mg/patient; 50% of the maximally tolerated single dose; cited from earlier work

SMILES: O=[N+]([O-])c1nccn1CC(O)COC(C(F)(F)F)C(F)(F)F (centres unmarked) [CCI-103F]
binding (ng/g protein ± SE) ([1]; pH 6.4): 90 ± 7 ng/g protein
binding (ng/g protein ± SE) ([1]; pH 6.8): 118 ± 17 ng/g protein
binding (ng/g protein ± SE) ([1]; pH 7.4): 125 ± 5 ng/g protein
Ci/Ce in V79 cells ([2]; pH 6.4): ~1.0
Ci/Ce in V79 cells ([2]; pH 6.8): ~1.0
Ci/Ce in V79 cells ([2]; pH 7.4): ~1.0

SMILES: O=C(Cn1ccnc1[N+](=O)[O-])NCC(F)(F)C(F)(F)F [EF5, 2-(2-nitro-1H-imidazol-1-yl)-N-(2,2,3,3-pentafluoropropyl)-acetamide]
plasma half-life (t1/2) [3]: 11.7 ± 2.7 h

SMILES: COCC(O)Cn1ccnc1[N+](=O)[O-] (centres unmarked) [misonidazole]
plasma half-life (t1/2) [3]: 9.3 h

extent of binding relative to CCI-103F within a single tumor ([4]; regions of one canine tumor, FIGS. 1A-1D): greatly exceeded it in other regions
SMILES: O=[N+]([O-])c1nccn1CC(O)CN1CCCCC1 (centres unmarked) [pimonidazole, 1-(2-hydroxy-3-piperidinopropyl)-2-nitroimidazole]
binding (ng/g protein ± SE) ([1]; pH 6.4): 144 ± 15 ng/g protein
intensity of binding compared with CCI-103F ([1]; pH 6.4 to 7.4, anoxic V79-4 cells): greater than that for CCI-103F at all pH levels tested
binding (ng/g protein ± SE) ([1]; pH 6.8): 293 ± 19 ng/g protein
binding (ng/g protein ± SE) ([1]; pH 7.4): 363 ± 22 ng/g protein
extent of immunostaining relative to CCI-103F, factor on average ([4]; 12 dogs, pimonidazole HCl 0.5 gm/m^2, CCI-103F seven hours later, paired t test): 1.25
pKa [5]: 8.7
plasma half-life (t1/2) [3]: 5.1 ± 0.8 h
central nervous system (CNS) effects [6]: extremely low frequency of even the mildest of central nervous system (CNS) effects
Ci/Ce in V79 cells ([2]; pH 6.4): 1.0
Ci/Ce in V79 cells ([2]; pH 6.8): 1.6
Ci/Ce in V79 cells ([2]; pH 7.4): 3.3

— patent US9056136B2, “Weakly basic 2-nitroimidazoles for the non-invasive detection of tissue hypoxia” (Natural Pharmacia International, Inc., priority 2006, dated 2015)
